Reference: patent US20260217768A1, “NANOPARTICLE-NHE3 PEPTIDE TO TREAT DIARRHEA” (The Johns Hopkins University, priority 2023, published 2026)
“Also recorded” adds a separate entry of the source. Read-outs that look alike come from different tables or passages of the source.

Tests used:
[1] = system: NHE3; assay: Effect of N-terminal truncations of N3SP-1 on NHE3 activity in human enteroids (BCECF-fluorometry); format: cell-based; conditions: human duodenal enteroids, Hill equation; for Stimulation of NHE3 Activity: basal NHE3 activity, BCECF-fluorometry; for EC50: stimulation of basal NHE3 activity
Procedure: NHE3 activity in PS120, Caco-2/BBe cells and human jejunal enteroids was determined fluorometrically (Photon Technologies Incorporated) using the intracellular pH sensitive dye BCECF, as reported (Levine et al., 1993; Sarker et al., 2008; Foulke-Abel et al., 2020). PS120/HA3-NHE3 cells were seeded on glass cover slips and studied at 70-80% confluency. Caco-2/BBe/HA3-NHE3 cells were grown to confluency on Transwell inserts (polyester, 0.4-μm pore size) and studied approximately 14-16 days pod. Human duodenal enteroid monolayers on Transwell inserts were differentiated for 5 days in the absence of Wnt3a, R-spondin, and noggin as described (Noel et al., 2017; Staab et al., 2020).
Rates of Na^+/H^+ exchange were determined as Na^+-dependent alkalinization in the presence of 50-μM HOE-694 (to inhibit all other plasma membrane NHE isoforms) in HCO3-free solutions, with internal calibration using the nigericin/K+ method, as previously described (Sarker et al., 2008; Foulke-Abel et al., 2020). Kinetic analysis was used for PS120 cell studies (expressed as Vmax) and initial rates (ΔpH/min) for Caco-2/BBe cells, mouse intestine in vitro, and human enteroids. For in vitro mouse jejunal transport studies, NHE3 activity (in the presence of 50-μM HOE-694) was measured using SNARF-4F at 37° C. in a perfusion chamber using a two-photon microscope (Olympus FV1000) and 25× objective, as described (Murtazina et al., 2011).
Concentration dependent effects on NHE3 basal activity was determined using BCECF-fluorometry. Kinetic analysis was determined of extent of stimulation of basal NHE3 activity; analysis was by use of the Hill equation.
Given the ability of N3SP-1Δ7 to prevent CTx-induced fluid secretion in vivo (FIG. 3E) and to stimulate basal NHE3 activity and prevent cAMP inhibition in human enteroids (FIG. 4C), further studies were carried out with human enteroids to determine the shortest N3SP-1-related peptide that would stimulate human NHE3. A series of N3SP-1 N-terminal truncations was synthesized and concentration-dependent stimulation of NHE3 activity determined using human jejunal enteroids.

[2] = system: NHE3; assay: NHE3 activity in PS120/HA3-NHE3/NHERF2 cells (BCECF); format: cell-based, rabbit
[3] = system: NHE3; assay: NHE3 activity in polarized Caco-2/BBe/HA3-NHE3 cells (BCECF); format: cell-based; conditions: for EC50: Hill equation
[4] = system: NHE3; assay: NHE3 activity in mouse jejunum in vitro (two-photon microscope/SNARF-4F); format: cell-based
[5] = system: mouse jejunum; assay: Basal net water transport, in vivo perfusion of mouse jejunal loops
[6] = system: mouse jejunum; conditions: in vivo
[7] = system: CTx-induced electrogenic anion secretion; assay: Short-circuit current (Isc) of CTx-treated mouse jejunal loops, Ussing chamber/voltage clamp; conditions: for Isc in CTx treated loops compared to CTx in PBS: 400 nM peptide with 1-μg CTx for 6 h, no further secretagogue; for peak increases in Isc with sequential addition of FSK and carbachol: CTx exposed loops, 10-μM FSK then 10-μM CCH serosal, CP-1 vs N3SP-1
[8] = system: mouse jejunum; conditions: in vivo; remark: listed apart in the source
[9] = system: mouse jejunum; assay: Anti-CD3 monoclonal antibody-induced (TNFα-mediated inflammation) fluid secretion, mouse jejunal loops; format: in vivo
[10] = system: mouse ileal loops; assay: Basal fluid absorption in closed mouse ileal loops, nanoparticle-conjugated peptides, with or without Tenapanor; format: in vivo; conditions: pretreatment with 10-μM Tenapanor
Procedure: All in vivo studies were performed on 8-12 week old C57B1/6N mice anesthetized with isofluorane and kept at 37° C. via heating lamps and rectal thermal probes.
Effect on basal fluid transport and effect of Tenapanor. Mice operated on as above had 3-4 cm closed ileal loops inoculated with 150-μL PBS containing 400-nM nanoparticle-CP-2 or -N3SP-1Δ7. After 4 h, the loops were drained and inoculated with 150-μL PBS. 30 min later, the animals were sacrificed and loop weight/length determined. In parallel studies, Tenapanor (10 μM) was present in both incubation periods. Similar to the BODIPY-conjugated peptide studies, the effects of nanoparticle-CP-2 or N3SP-1Δ7 (4 μM) compared to PBS alone were determined on net fluid secretion produced by inoculation of 0.1-μg CTx. The nanoparticle-peptides plus 0.1-μg CTx in 150-μL PBS were inoculated in 3-4 cm long closed ileal loops. Additional controls included loops exposed only to 150-μL PBS and those only exposed to the CTx/PBS. 4 h later, the animals were sacrificed and loop weight/cm length was determined.

NHE3 mimetic peptide, rabbit NHE3 aa 568-605: NVDFSTPRPSTVEASVSYLLRESASAVCLDMQSLEQRR [Peptide N3SP-1]
Stimulation of NHE3 Activity [1]: YES (38%) | EC50 [1]: 0.152 µM | stimulation of basal NHE3 activity compared to CP-1 ([2]; BODIPY-conjugated peptide 400 nM, PS120/HA3-NHE3/NHERF2 cells): 61% | effect on inhibition of NHE3 by 4-Br-A23187 ([2]; BODIPY-conjugated peptide pretreatment, 0.5-μM A23187, PS120 fibroblasts): prevented inhibition | effect on basal NHE3 activity in the absence of BODIPY conjugation ([2]; unconjugated peptide 400 nM, PS120 cells): No stimulatory effect; also recorded: Neither CP-1 nor N3SP-1 altered basal NHE3 activity | stimulation of basal NHE3 activity compared to CP-1 ([3]; BODIPY-conjugated peptide 400 nM, Caco-2/BBe/HA3-NHE3 cells): 41% | EC50 ([3]; BODIPY-conjugated peptide added apically, Caco-2/BBe cells, read-out: EC50 of prevention of FSK inhibition of NHE3): 0.157 µM | effect on inhibition of NHE3 by FSK ([3]; BODIPY-conjugated peptide pretreatment, FSK (10 μM), Caco-2/BBe cells): prevented inhibition | effect on inhibition of NHE3 by carbachol ([3]; BODIPY-conjugated peptide pretreatment, carbachol (10 μM), Caco-2/BBe cells): prevented inhibition | concentration of maximal effect on basal NHE3 activity ([3]; BODIPY-conjugated peptide, Caco-2/BBe/HA3-NHE3 cells): 400 nM | EC50 ([3]; BODIPY-conjugated peptide, Caco-2/BBe/HA3-NHE3 cells, read-out: EC50 of stimulation of basal NHE3 activity): 0.152 µM | EGF stimulation of NHE3 activity in presence of peptide ([3]; EGF (200 ng/mL), BODIPY-conjugated peptide 400 nM, Caco-2/BBe cells): 35% | stimulation of basal NHE3 activity compared to CP-1 ([4]; BODIPY-conjugated peptide 400 nM): 57% | effect on inhibition of NHE3 by FSK ([4]; BODIPY-conjugated peptide pretreatment, FSK (10 μM)): prevented inhibition | difference in net water transport between N3SP-1 and CP-1 perfused jejunal loops ([5]; 400 nM, n=5, p=0.0004): 56.6 ± 15.1 µL/min/cm | effect on CTx-stimulated net fluid secretion (loop weight/cm) [6]: prevented CTx-stimulated fluid secretion | localization of NHE3 in CTx-treated jejunum [6]: NHE3 was detected on the CTx-treated jejunal BB | Isc in CTx treated loops compared to CTx in PBS [7]: slightly, but not significantly, greater; also recorded: not altered | peak increases in Isc with sequential addition of FSK and carbachol [7]: not different | effect on STa-induced intestinal fluid accumulation [8]: significantly reduced | effect on anti-CD3 antibody-induced luminal fluid accumulation ([9]; 400 nM peptide in loop, 200-μg anti-CD3 antibody IP, 2.5 h): prevents fluid secretion

CP-1: 21 aa control peptide representing aa 585-605 of rabbit NHE3 (YLLRESASAVCLDMQSLEQRR; UniProt P26432 585-605, looked up, fragment)
effect on basal NHE3 activity compared to BODIPY alone [2]: no significant effect | effect on basal NHE3 activity in the absence of BODIPY conjugation [2]: Neither CP-1 nor N3SP-1 altered basal NHE3 activity | EGF stimulation of NHE3 activity in presence of peptide [3]: 38% | jejunal net water transport ([5]; mouse, in vivo): 4.2 µL/min/cm | effect on CTx-stimulated net fluid secretion (loop weight/cm) [6]: did not alter fluid accumulation | localization of NHE3 in CTx-treated jejunum [6]: NHE3 was internalized | Isc in CTx treated loops compared to CTx in PBS [7]: slightly, but not significantly, greater | peak increases in Isc with sequential addition of FSK and carbachol [7]: not different | effect on STa-induced intestinal fluid accumulation [8]: not observed | effect on anti-CD3 antibody-induced luminal fluid accumulation ([9]; mouse, in vivo, ip): increased luminal fluid accumulation

N3SP-1 N-terminal truncation of 5 aa: TPRPSTVEASVSYLLRESASAVCLDMQSLEQRR [Peptide N3SP-1Δ5]
Stimulation of NHE3 Activity [1]: YES (39%) | EC50 [1]: 0.154 µM

CN1Cc2c(Cl)cc(Cl)cc2[C@H](c2cccc(S(=O)(=O)NCCOCCOCCNC(=O)NCCCCNC(=O)NCCOCCOCCNS(=O)(=O)c3cccc([C@@H]4CN(C)Cc5c(Cl)cc(Cl)cc54)c3)c2)C1 [Tenapanor, reference compound]
effect on N3SP-1Δ7 increased baseline fluid absorption [10]: prevented

N3SP-1 N-terminal truncation of 6 aa: PRPSTVEASVSYLLRESASAVCLDMQSLEQRR [Peptide N3SP-1Δ6]
Stimulation of NHE3 Activity [1]: YES (40%) | EC50 [1]: 0.151 µM
